Experiments:
MNK2a = molecular target: T1, MNK2a (Homo sapiens, UniProt Q9HBH9); assay: MNK2a in vitro kinase assay (assay 1), ADP-Glo; type: biochemical; conditions: preactivated GST-MNK2a, 20 μM ATP, read-out: MNK2 IC50
T1 construct: made in house
Procedure: A. MNK2a In Vitro Kinase Assay (Assay 1)
ASSAY SETUP: The inhibition of kinase activity of MNK2a was assessed using preactivated GST-MNK2a. The white, 384-well OptiPlate F plates were purchased from Perkin Elmer. The ADP-Glo Kinase Assay (including ultra pure ATP) was purchased from Promega (V9103). Activated MNK2a was obtained as described in WO2011/104340. The unlabeled eIF4E peptide (NH2-[…]—CONH2) (SEQ ID NO: 1), differing from Seq. ID No. 5 of WO 2011/104340 by the C-terminal —CONH2 group, was purchased from Thermo Fisher Scientific. All other materials were of highest grade commercially available. Compounds are tested in either serial dilutions or single dose concentrations. The compound stock solutions are 10 mM in 100% DMSO The serial compound dilutions are prepared in 100% DMSO followed by 1:27.3 intermediate dilution in assay buffer. The final DMSO concentration in assay will be <3%. In the 384-well plates 3 μl of test compound from the intermediate dilution is mixed with 4 μl of the activated MNK2 enzyme (final concentration of 10 nM) and 4 μl of the peptide (final concentration of 25 μM)/ultra pure ATP (final concentration of 20 μM), all dissolved in assay buffer. This step is followed by an incubation time of 90 min, then 10 μl of ADP Glo reagent are added, followed by 40 min of incubation. Then 20 μl of kinase detection reagent are admixed. The plates are sealed and after an incubation period of 30 min, the luminescence signal is measured in an Envision reader to determine the amount of produced ADP. All incubation steps are performed at room temperature. The assay buffer consists of 20 mM HEPES, 2 mM DTT, 0.01% BSA, 20 mM MgCl2 and 0.1% Pluronic F-127.
Each assay microtiter plate contains wells with vehicle controls instead of compound (1% DMSO in water) as reference for the high signal (100% CTL, high signal), and wells containing a potent MNK2 inhibitor (final 20 μM, 1% DMSO) as reference for low signal (0% CTL, low signal).
The luminescent signal generated is proportional to the ADP concentration produced and is correlated with activated MNK2 activity. The analysis of the data is performed by the calculation of the percentage of ATP consumption of activated MNK2 in the presence of the test compound compared to the consumption of ATP in the presence of activated MNK2 without compound. (RLU(sample)−RLU(low control))*100/(RLU(high value)−RLU(low control)) [RLU=relative luminescence units]
An inhibitor of the MNK2 enzyme will give values between 100% CTL (no inhibition) and 0% CTL (complete inhibition). Values of more than 100% CTL are normally related to compound/sample specific physico-chemical properties (e.g. solubility, light absorbance, fluorescence).
IC50 values based on dose response curves are calculated with the AssayExplorer software.

MNK1a = MNK1a (Homo sapiens, UniProt Q9BUB5); assay: MNK1 in vitro kinase assay (assay 2), Z'-LYTE; type: biochemical; conditions: for inhibition at 1 µM: compound concentration of 1 μM; for IC50: pre-activated GST-MNK1a
Excerpt: B. MNK1 In Vitro Kinase Assay (Assay 2)
MNK1 Data can be obtained from the MNK1 Z′-LYTE® assay. The MNK1 Z′-LYTE® screening protocol and assay conditions are also described on www.invitrogen.com.
The assay is described as follows:
The Z′-LYTE® biochemical assay employs a fluorescence-based, coupled-enzyme format and is based on the differential sensitivity of phosphorylated and non-phosphorylated peptides to proteolytic cleavage. The peptide substrate is labeled with two fluorophores—one at each end—that make up a FRET pair.
In the primary reaction, the kinase transfers the gamma-phosphate of ATP to a single tyrosine, serine or threonine residue in a synthetic FRET-peptide. In the secondary reaction, a site-specific protease recognizes and cleaves non-phosphorylated FRET-peptides. Phosphorylation of FRET-peptides suppresses cleavage by the Development Reagent. Cleavage disrupts FRET between the donor (i.e., coumarin) and acceptor (i.e., fluorescein) fluorophores on the FRET-peptide, whereas uncleaved, phosphorylated FRET-peptides maintain FRET. A ratiometric method, which calculates the ratio (the Emission Ratio) of donor emission to acceptor emission after excitation of the donor fluorophore at 400 nm, is used to quantitate reaction progress, as shown in the equation below. Emission Ratio=Coumarin Emission(445 nm)/Fluorescein Emission(520 nm)
ASSAY SETUP: The inhibition of kinase activity of MNK1a was assessed using pre-activated GST-MNK1a. The 2×MKNK1 (MNK1) mixture is prepared in 50 mM HEPES pH 7.5, 0.01% BRIJ-35, 10 mM MgCl2, 4 mM MnCl2, 1 mM EGTA, 2 mM DTT. The final 10 μL Kinase Reaction consists of 13.5-54 ng MKNK1 (MNK1) and 2 μM Ser/Thr 07 in 50 mM HEPES pH 7.5, 0.01% BRIJ-35, 10 mM MgCl2, 2 mM MnCl2, 1 mM EGTA, 1 mM DTT. After the 1 hour Kinase Reaction incubation, 5 μL of a 1:32768 dilution of Development Reagent A is added.
The Test Compounds are screened in 1% DMSO (final) in the well.
All Peptide/Kinase Mixtures are diluted to a 2× working concentration in the MNK1 Kinase Buffer.
All ATP Solutions are diluted to a 4× working concentration in Kinase Buffer (50 mM HEPES pH 7.5, 0.01% BRIJ-35, 10 mM MgCl2, 1 mM EGTA).
Development Reagent Solution:
The Development Reagent is diluted in Development Buffer
Bar-coded Corning, low volume NBS, 384-well plate (Corning Cat. #3676)
1. 2.5 μL-4× Test Compound
2. 5 μL-2× Peptide/Kinase Mixture
5. 60-minute Kinase Reaction incubation at room temperature
6. 5 μL-Development Reagent Solution
8. 60-minute Development Reaction incubation at room temperature
9. Read on fluorescence plate reader and analyze the data
The following equations are used for each set of data points: […]
Correction for Background Fluorescence: FSample−FITCFl Ctl
Emission Ratio (using values corrected for background fluorescence):Coumarin
Emission (445 nm)/Fluorescein Emission (520 nm)
% Phosphorylation (% Phos): 1−((Emission Ratio×F100%)−C100%)/((C0%−C100%)+[Emission Ratio×(F100%−F0%)])*100 % Inhibition: 1−(% PhosSample/% Phos0% Inhibition Ctl)*100 FI=Fluorescence Intensity C100%=Average Coumarin emission signal of the 100% Phos. Control C0%=Average Coumarin emission signal of the 0% Phos. Control F100%=Average Fluorescein emission signal of the 100% Phos. Control F0%=Average Fluorescein emission signal of the 0% Phos. Control Graphing Software
SelectScreen® Kinase Profiling Service uses XLfit from IDBS. The dose response curve is curve fit to model number 205 (sigmoidal dose-response model).

T1 sequence (Q9HBH9 whole entry): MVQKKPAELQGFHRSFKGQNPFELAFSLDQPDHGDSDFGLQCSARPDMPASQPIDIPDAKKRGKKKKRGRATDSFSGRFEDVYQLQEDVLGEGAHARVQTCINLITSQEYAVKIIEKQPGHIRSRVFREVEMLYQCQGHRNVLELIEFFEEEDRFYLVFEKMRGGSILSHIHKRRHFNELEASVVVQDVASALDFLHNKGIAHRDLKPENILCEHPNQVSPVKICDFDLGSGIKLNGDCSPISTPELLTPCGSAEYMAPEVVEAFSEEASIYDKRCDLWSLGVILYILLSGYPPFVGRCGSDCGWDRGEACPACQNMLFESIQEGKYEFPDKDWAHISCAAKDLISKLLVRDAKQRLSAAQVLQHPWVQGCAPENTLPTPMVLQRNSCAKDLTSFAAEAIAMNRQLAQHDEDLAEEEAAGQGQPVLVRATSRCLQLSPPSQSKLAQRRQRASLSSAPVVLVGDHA
Chain of MNK1a (Q9BUB5 1-424 isoform Q9BUB5-2): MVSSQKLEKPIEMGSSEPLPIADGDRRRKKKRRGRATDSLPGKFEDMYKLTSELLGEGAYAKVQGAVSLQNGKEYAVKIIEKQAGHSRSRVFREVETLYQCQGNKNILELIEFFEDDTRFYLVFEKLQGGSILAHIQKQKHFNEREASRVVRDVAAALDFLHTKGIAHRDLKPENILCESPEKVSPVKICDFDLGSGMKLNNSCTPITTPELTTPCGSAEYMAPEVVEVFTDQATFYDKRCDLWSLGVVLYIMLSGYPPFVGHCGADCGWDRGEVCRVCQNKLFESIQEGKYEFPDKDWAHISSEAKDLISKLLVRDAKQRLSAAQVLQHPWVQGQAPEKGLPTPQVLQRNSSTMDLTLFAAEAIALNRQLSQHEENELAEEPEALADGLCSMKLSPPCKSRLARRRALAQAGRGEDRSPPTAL

| Structure (SMILES) | IC50 (MNK2a) [nM] | inhibition at 1 µM (MNK1a) [%] | IC50 (MNK1a) [nM] |
| --- | --- | --- | --- |
| Cc1cc(N=S(C)(C)=O)cc2ncnc(Nc3ccc(C#N)nc3OC3CCOCC3)c12 [Example 1.38] | 12 | 99 |  |
| Cc1cc(N=S(C)(C)=O)cc2ncnc(Nc3ccc(F)nc3O[C@H]3CCOC3)c12 [Example 1.40] | 3 | 94 |  |
| Cc1cc(N=S(C)(C)=O)cc2ncnc(Nc3ccc(Cl)nc3O[C@H]3CCOC3)c12 [Example 1.41] | 3 |  | 74 |
| COc1cc(N=S(C)(C)=O)cc2ncnc(Nc3ccc(F)cc3O[C@@H]3CO[C@H]4[C@@H]3OC[C@H]4OC)c12 [Example 2.1] | 1 |  | 11 |
| Cc1cc(N=S2(=O)CCOCC2)cc2ncnc(Nc3ccc(F)cc3O[C@@H]3CO[C@H]4[C@@H]3OC[C@H]4O)c12 [Example 2.2] | 4 | 95 |  |
| Cc1cc(N=S2(=O)CCOCC2)cc2ncnc(Nc3ccc(F)cc3O[C@H]3CCOC3)c12 [Example 2.3] | 5 | 89 |  |
| Cc1cc(N=S2(=O)CCCC2)cc2ncnc(Nc3cccnc3O[C@@H]3CO[C@H]4[C@@H]3OC[C@H]4O)c12 [Example 2.4] | 4 | 97 |  |
| Cc1cc(N=S(C)(C)=O)cc2ncnc(Nc3cccnc3OC3CCOCC3)c12 [Example 2.6] | 4 | 92 |  |
| CCO[C@@H]1CO[C@H]2[C@@H]1OC[C@H]2Oc1cc(F)ccc1Nc1ncnc2cc(N=S(C)(C)=O)cc(C)c12 [Example 2.7] | 1 | 98 |  |
| Cc1cc(N=S2(=O)CCCC2)cc2ncnc(Nc3ccsc3O[C@@H]3CCOC3)c12 [Example 2.8] | 44 | 64 |  |
| Cc1cc(N=S(C)(C)=O)cc2ncnc(Nc3cccnc3O[C@H]3CC[C@H](NC(=O)OC(C)(C)C)CC3)c12 [Example 2.10] | 4 | 92 |  |
| Cc1cc(N=S(C)(=O)c2ccccn2)cc2ncnc(Nc3ccc(F)cc3O[C@@H]3CO[C@@H]4CCO[C@@H]43)c12 (stereo partly shown) [Example 2.11] | 6 | 92 |  |
| CCS(=O)(CC)=Nc1cc(C)c2c(Nc3ccc(F)cc3O[C@H]3CC[C@H](OC)CC3)ncnc2c1 [Example 2.12] | 13 | 24 |  |
| CC(C)(C)OC(=O)N1CCC[C@@H](Oc2cc(F)ccc2Nc2ncnc3cc(N=S(C)(C)=O)cc(F)c23)C1 [Example 2.13] | 39 | 73 |  |
| CO[C@H]1CC[C@H](Oc2cc(F)ccc2Nc2ncnc3cc(N=S4(=O)CCN(C(=O)OC(C)(C)C)CC4)cc(C)c23)CC1 [Example 2.14] | 9 | 52 |  |
| CC(C)(C)OC(=O)N[C@H]1CC[C@H](Oc2ncccc2Nc2ncnc3cc(N=S(C)(C)=O)cc(F)c23)CC1 [Example 2.15] | 7 | 72 |  |
| Cc1cc(N=S(C)(C)=O)cc2ncnc(Nc3ccc(C(N)=O)cc3OC3CCOCC3)c12 [Example 2.16] | 10 | 94 |  |
| CO[C@H]1CC[C@H](Oc2cc(F)ccc2Nc2ncnc3cc(N=S4(=O)CCOCC4)cc(C)c23)CC1 [Example 2.17] | 4 | 91 |  |
| Cc1cc(N=S(C)(C)=O)cc2ncnc(Nc3cccnc3O[C@@H]3CCCN(C(=O)OC(C)(C)C)C3)c12 [Example 2.23] | 52 | 66 |  |
| Cc1cc(N=S(C)(C)=O)cc2ncnc(Nc3ccc(C(N)=O)cc3OC3CCCC3)c12 [Example 2.24] | 4 | 93 |  |
| Cc1cc(N=S(C)(C)=O)cc2ncnc(Nc3ccc(F)cc3O[C@@H]3CCCN(C(=O)OC(C)(C)C)C3)c12 [Example 2.27] | 46 | 78 |  |
| Cc1cc(N=S(C)(C)=O)cc2ncnc(Nc3ccc(F)cc3O[C@@H]3CO[C@H]4[C@@H]3OC[C@H]4OC(C)C)c12 [Example 2.28] | 4 | 98 |  |
| Cc1cc(N=S(C)(C)=O)cc2ncnc(Nc3ccc(F)cc3O[C@@H]3CO[C@H]4[C@@H]3OC[C@H]4C#N)c12 [Example 2.30] | 7 | 88 |  |
| Cc1cc(N=S(C)(C)=O)cc2ncnc(Nc3cccnc3O[C@H]3CC[C@H](O)CC3)c12 [Example 2.31] | 2 | 100 |  |
| CCS(C)(=O)=Nc1cc(C)c2c(Nc3ccc(F)cc3O[C@@H]3CO[C@H]4[C@@H]3OC[C@H]4O)ncnc2c1 (stereo partly shown) [Example 2.33] | 3 | 100 |  |
| CO[C@@H]1CO[C@H]2[C@@H]1OC[C@H]2Oc1cc(F)ccc1Nc1ncnc2cc(N=S(C)(C)=O)cc(C)c12 [Example 2.34] | 1 |  | 17 |
| CS(C)(=O)=Nc1cc(F)c2c(Nc3ccc(F)cc3O[C@H]3CC[C@@](C)(O)CC3)ncnc2c1 [Example 2.35] | 4 | 95 |  |
| CCO[C@@H]1CO[C@H]2[C@@H]1OC[C@H]2Oc1cc(F)ccc1Nc1ncnc2cc(N=S3(=O)CCCC3)cc(C)c12 [Example 2.37] | 1 | 95 |  |
| Cc1cc(N=S(C)(=O)c2ccccn2)cc2ncnc(Nc3ccc(F)cc3O[C@H]3CCOC3)c12 (stereo partly shown) [Example 2.38] | 7 | 82 |  |
| Cc1cc(N=S2(=O)CCCC2)cc2ncnc(Nc3ccc(F)cc3O[C@H]3CC[C@H](O)CC3)c12 [Example 2.40] | 2 | 100 | 56 |

— patent US8901138B2, “Sulfoximine substituted quinazolines for pharmaceutical compositions” (Boehringer Ingelheim International GmbH, priority 2012, dated 2014)
